From publication PMC7830597, “Derivatives of Tenuazonic Acid as Potential New Multi-Target Anti-Alzheimer’s Disease Agents” (Biomolecules, 2021) come the findings set out here.

One data set in a line: Solubility in water. Format: physicochemical.
Another data set concerns the target T1, Aβ1-42 (Homo sapiens, UniProt P05067).
T1 construct: Amyloid β peptide (Aβ1-42) was purchased from GeneCust as a lyophilised powder; purchased GeneCust
In words: Inhibition of Cu2+-induced Aβ1-42 aggregation, thioflavin T fluorescence. It counts as biochemical. The conditions noted are these: inhibitor 40 µM, copper 40 µM, read-out: Inhib. Aβ Aggreg. Cu2+-Induced. As to the method: The anti-amyloidogenic activity of all the compounds was also evaluated in vitro, in the absence and in presence of Cu(II), by measuring the fluorescence emission of Thioflavin T (ThT). […] The Aβ self-aggregation inhibitory activity shown by all compounds is higher than that of parent compound TA, with the exception of compound 2 (probably due to solubility issues at the experimental conditions of the assays). The fact that the reference value previously reported by us for TA (50 ± 8%) was obtained for quite different conditions, including a much higher inhibitor concentration (100 μM instead of 40 μM) is noteworthy. […] This may be due to different electronic contributions between the ketone and the ester functions. Therefore, the ester derivatives seem to be better chelators compared to TA.
The spectrofluorimetric method, based on the fluorescence emission of thioflavin T (ThT), was used to study the Aβ1-42 aggregation inhibition. Firstly, Aβ1-42 was dissolved in HFIP (1,1,1,3,3,3-Hexafluoro-2-propanol) and kept overnight at room temperature in order to obtain a dry film. Then, the film was re-dissolved in CH3CN-Na2CO3 (300μM)/NaOH (250μM) (48.3/48.3/3.4 mL v/v/v) and then phosphate buffer (pH = 8) was added. The ligand solutions were prepared with MeOH (1mg/mL) and further with phosphate buffer. For the inhibition studies of copper-induced Aβ aggregation, a solution of CuCl2 240 μM was used. As a control, a solution of 30 μL of phosphate buffer and 30 μL of Aβ1-42 was used to observe the aggregation without any inhibition, while the ligand assay solutions were composed of 20 μL of phosphate buffer, 30 μL of Aβ1-42 and 10 μL of ligand. The Cu-induced aggregation studies were similarly conducted, adding 10 μL of CuCl2 to induce the fibril aggregation. Each experiment was composed of an assay and a blank sample, where the blank sample lacks Aβ1-42, to monitor the effect of the compounds on the fluorescence emission. The samples were left to incubate in a CERTOMAT WR water bath for 24 h at 37 °C with shaking. After 24 h, a Glycine-NaOH buffer (pH = 8.5) containing ThT were added to each sample in a microplate. The fluorescence signal was monitored at 446 nm (λexc) and 486 nm (λem) with a Varian Cary Eclipse fluorimeter. Amyloid β peptide (Aβ1-42) was purchased from GeneCust as a lyophilised powder and stored at −20 °C [12, 13, 14].

The subject of data set [1] is SH-SY5Y human neuroblastoma cells. Kind of data set: Neuroprotection against Aβ1-42-induced toxicity, MTT. It counts as cell-based. The note with it: Aβ1-42 2.5 μM 24 h; 1 h pre-incubation; compounds 1, 2 100 µM; 4 10 µM; 5 20 µM. As to the method:
(§1) SH-SY5Y human neuroblastoma cells (ATCC-CRL-2266) were seeded in DMEM/F12 (Dulbecco’s Modified Eagle Medium/Ham’s F-12 Nutrient Mixture; Thermo Fisher Scientific) with 10% heat inactivated fetal bovine serum, 50 U/mL penicillin and 50 U/mL streptomycin under a humidified atmosphere with 95% relative humidity at 37 °C at a 0.16 × 10^6 cells/mL density. Stock solutions from tested compounds (1, 2, 4 and 5) were prepared in DMSO at a 25 mM concentration and stored at −20 °C until needed. In order to select the highest non-toxic concentration, a dose-response screening was performed, where SH-SY5Y cells were exposed to the compounds for 25 h. The selected concentrations for each compound were: 75 µM final concentration for 1 and 2; 10 µM final concentration for 4 and 20 µM final concentration for 5. […] For the neuroprotection assays, the selected compounds were added to the cell media 1 hour prior to the incubation with Aβ1-42 or L-ascorbic acid/ferrous sulphate. Aβ1-42 or L-ascorbic acid/ferrous sulphate treatment was maintained for another 24 h. Aβ1-42 was prepared as 276.9 µM stock in sterile water and administrated in the medium at a 2.5 µM final concentration. Ferrous sulphate was freshly prepared as 0.36 M stock in water and added to the medium at 2.5 mM final concentration. L-ascorbic acid was freshly prepared as 80 mM stock in water and added to the medium at 5 mM final concentration. Aβ1-42 was purchased from Bachem (Torrance, CA, USA) and ferrous sulphate and L-ascorbic acid from Sigma Chemical Co (St. Louis, MO, USA).
(§2) Cell viability was measured by using the MTT (3-(4,5-dimethylthiazol-2-yl)-2,5-diphenyl tetrazolium bromide) reduction assay. This test is based on the presence of succinate dehydrogenase enzyme in viable cells, that allows them to metabolize MTT into a formazan. After treatment, the medium was removed, and cells were washed with 1x PBS one time to remove dead cells. 200 µL of MTT solution (0.5 mg/mL) was added to each well and incubated for 2 h protected from light. Formazan precipitates were then dissolved in DMSO and absorbance measured at 570 nm. The ability to reduce MTT was expressed as a percentage of untreated control cells.
Overnight cultures were treated with Aβ1-42 peptide (2.5 μM) for 24 h in the absence or in the presence of the compounds. When compounds were present, a pre-incubation of 1 h preceded the Aβ1-42 treatment. Cellular viability was determined by employing the MTT reduction assay. […] (compounds: 1, 2–100 µM; 4–10 µM; 5–20 µM).

Data set [2] has the same test system. In words: Dose-response cell viability screening, MTT reduction assay. It counts as cell-based. The conditions noted are these: for cytotoxicity on SH-SY5Y cell line: 10 μM to 100 μM, 24 h, at the active concentrations; for highest non-toxic concentration (selected concentration): SH-SY5Y cells exposed for 25 h. As to the method: as §1, §2
Figure 10 Dose-response screening of compounds 1, 2, 4 and 5 on SH-SY5Y neuronal cell line. Overnight cultures were treated with a range of concentrations from 10 μM to 100 μM for 24 h and cellular viability was determined by employing the MTT reduction assay.
In general terms: Formazan colour is commonly taken as a measure of viable cells.

T1 sequence (P05067 672-713 limits assumed): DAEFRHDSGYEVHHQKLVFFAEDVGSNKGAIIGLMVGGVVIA

For `CCOC(=O)C1=C(O)C(C(C)C)NC1=O` (stereo not drawn) [Compound 1, Ethyl 4-hydroxy-5-isopropyl-2-oxo-2,5-dihydro-1H-pyrrole-3-carboxylate], the solubility in water entry in the data set “Solubility in water” is given as “insoluble in water”. Moreover, on Aβ1-42, the inhibition at 40 µM came out at 36.6%. The “protection against Aβ1-42-induced toxicity” value in data set [1] was “do not confer protection”. Besides, in data set [2], the “cytotoxicity on SH-SY5Y cell line” value is given as “do not show (except for compound 4) cytotoxicity” and the “highest non-toxic concentration (selected concentration)” value amounted to 75 µM.
Consider `CCOC(=O)C1=C(O)C(Cc2ccccc2)NC1=O` (stereo not drawn) [Compound 2, Ethyl 5-benzyl-4-hydroxy-2-oxo-2,5-dihydro-1H-pyrrole-3-carboxylate], for which the inhibition at 40 µM at Aβ1-42 was found to be 28.2%. Besides, in data set [1], the “protection against Aβ1-42-induced toxicity” value is on record as “do not confer protection”. For the same compound, in data set [2], the “cytotoxicity on SH-SY5Y cell line” value was “do not show (except for compound 4) cytotoxicity” and the “highest non-toxic concentration (selected concentration)” value was found to be 75 µM.
